In paper PMC11058299, “Synthesis, molecular docking evaluation for LOX and COX-2 inhibition and determination of in-vivo analgesic potentials of aurone derivatives” (Heliyon, 2024):
Several values for one entry are separate records, joined by “and”; a condition that tells them apart may be missing. Equal values may be shown once.

Key:
[1] = test system: acetic acid induced writhing; test: Acetic acid induced writhing test; type: in vivo; settings: mice; for number of writhing: mean ± SEM, control 61.22 ± 3.90
Protocol: The animals were divided into various groups I-XVI consisting of 8 experimental animals for control, sample compounds (WE-1 to WE-7) and standard. Group I: Control, Group II-XV: WE-1 to WE-7 (sample compounds) at dose of 10 mg/kg and 20 mg/kg and Group XVI: Standard. The control (Group I) was given normal saline. Group II-XV received 10 mg/kg and 20 mg/kg of test sample (WE-1 to WE-7). […] The writhing test, following a previously established method, was conducted to assess the analgesic potential of the aurone derivatives. The mice were orally administered samples compounds (WE-1 to WE-7)and standard (Diclofenac sodium 10 mg/kg) 1 h before intraperitoneal administration 10 ml/kg of 1 % acetic acid. Five minutes after the acetic acid administration, the numbers of writhing episodes were counted for 10 min, and the percentage of inhibition was subsequently calculated.

[2] = test system: formalin induced paw licking; test: Formalin induced paw licking test; type: in vivo; settings: 20 mg/kg oral, mice
Protocol: The animals were divided into various groups I-XVI consisting of 8 experimental animals for control, sample compounds (WE-1 to WE-7) and standard. Group I: Control, Group II-XV: WE-1 to WE-7 (sample compounds) at dose of 10 mg/kg and 20 mg/kg and Group XVI: Standard. The control (Group I) was given normal saline. Group II-XV received 10 mg/kg and 20 mg/kg of test sample (WE-1 to WE-7). […] The acute peripheral and centrally mediated analgesic activity of aurone derivatives was evaluated using the formalin-induced pain method, as described. Samples compounds (WE-1 to WE-7) and a standard (Indomethacin 10 mg) were orally administered 30 min prior to 20 μl of 1 % formalin injection (prepared in 0.9 % saline) in right hind paw of the mice and immediately placed in a clear box to observe the animal's reaction. Paw licking or biting within 0–5 min indicated Phase 1, while animal reactions observed between 15 and 30 min indicated Phase 2. The number of paw licking or biting events was compared to the control group, and the percentage of inhibition was calculated.

[3] = biological target: T1, COX-2 enzyme (Homo sapiens, UniProt P35354); test: COX-2 inhibitory assay; type: biochemical; settings: Table 2
T1 construct: purchased Sigma Aldrich
T1 sequence (P35354 18-604): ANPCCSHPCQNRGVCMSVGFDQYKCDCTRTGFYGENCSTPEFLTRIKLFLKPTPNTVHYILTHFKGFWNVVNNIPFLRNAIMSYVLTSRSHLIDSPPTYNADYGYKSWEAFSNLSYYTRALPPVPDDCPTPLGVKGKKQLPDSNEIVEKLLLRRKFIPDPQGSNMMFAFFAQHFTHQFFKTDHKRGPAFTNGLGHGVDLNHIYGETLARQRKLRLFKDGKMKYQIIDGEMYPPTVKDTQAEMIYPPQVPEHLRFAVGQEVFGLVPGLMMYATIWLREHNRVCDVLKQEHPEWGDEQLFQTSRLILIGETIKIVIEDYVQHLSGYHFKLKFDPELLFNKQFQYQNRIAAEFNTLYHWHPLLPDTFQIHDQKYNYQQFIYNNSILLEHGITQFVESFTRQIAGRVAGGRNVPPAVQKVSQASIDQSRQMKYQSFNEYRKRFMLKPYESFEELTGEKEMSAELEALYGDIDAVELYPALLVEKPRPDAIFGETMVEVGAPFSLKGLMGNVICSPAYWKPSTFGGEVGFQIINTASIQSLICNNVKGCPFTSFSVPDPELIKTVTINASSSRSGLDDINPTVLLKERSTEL
Protocol: COX-2 inhibition was measured spectrophotometrically at 550 nm after the formation of oxidized form of tetramethlenephenylenediamine (TMPD). This assay was conducted according to previously reported procedure. […] The reaction contained 10 μL COX-2 enzymes (100 μM in diluted in DMSO), 10 μL haem of 2.2 mM diluted in DMSO, tris buffers (pH. 8, 100 μl) and drug samples according to the above stated procedure. The reaction was started by the addition of freshly prepared TMPD and methanolic arachidonic acid (AA). Celecoxib is used as a reference drug in this assay. After 5 min of incubation at 25–28C, the absorbance was measured at 550 nm and inhibition was calculated.

[4] = test system: heat induced tail flicking latency; test: Tail immersion test; type: in vivo; settings: mice; for tail flicking latency: after 90 min, without Naloxone
Protocol: Group I: Control, Group II-XV: WE-1 to WE-7 (sample compounds) at dose of 10 mg/kg and 20 mg/kg and Group XVI: Standard. The control (Group I) was given normal saline. Group II-XV received 10 mg/kg and 20 mg/kg of test sample (WE-1 to WE-7).
(§1) The cut-off time was set at 25 s, and the time taken for the mice to flick their tails out of the water was recorded at 30, 60, 90, and 120-min intervals. An increase in the time of tail immersion was compared to the control group to determine the analgesic effect of the tested drugs. The percentage of inhibition was calculated at the time interval showing the highest effect.

[5] = test system: opioid receptors (tail flicking latency); test: Assessment of opioid mechanism via tail immersion test with Naloxone; type: in vivo; settings: mice; for Latency response 30 min: control 3.14 ± 0.31; for Latency response 60 min: control 3.17 ± 0.41; for Latency response 120 min: control 3.20 ± 0.29; for Latency response 90 min: control 3.31 ± 0.44
Protocol: as §1
To verify the involvement of the opioid mechanism, following the approach outlined in the published study. […] These derivatives were assessed for their potential opioid activity within the control, sample compounds and standard groups using the tail immersion test.

With `COc1ccc(C=C2Oc3ccccc3C2=O)cc1OC` [WE-4, 2-(3,4-dimethoxybenzylidene)benzofuran-3(2H)-one] the “percent analgesic effect (inhibition of writhing)” value ([1]; 10 mg/kg oral) was 71.30%, the number of writhing ([1]; 10 mg/kg oral) was 17.57 ± 1.94 and the “percent analgesic effect (inhibition of writhing)” value ([1]; 20 mg/kg oral) was 77.60%. The number of writhing ([1]; 20 mg/kg oral) was 13.71 ± 1.77, the melting point was 175 to 178 °C and the “percentage inhibition of paw licking, Phase I” value ([2]; initial phase) was 49.97%. The “percentage inhibition of paw licking, Phase II” value ([2]; late phase) was 70.93% and 70.96%, the “number of formalin-induced paw licking, Phase II” value ([2]; late phase, control 55.81 ± 3.29) was 16.22 ± 1.86 and the IC50 [3] was 0.22 µM. The tail flicking latency ([4]; 10 mg/kg) was 11.23 ± 0.93, the “percentage inhibition of pain, tail immersion” value ([4]; 20 mg/kg oral, at interval of highest effect) was 74.31% and the tail flicking latency ([4]; 20 mg/kg) was 13.41 ± 1.21. For the same compound, the “Latency response 30 min” value ([5]; 10 mg/kg + Naloxone 2 mg/kg) was 3.60 ± 0.61, the “Latency response 60 min” value ([5]; 10 mg/kg + Naloxone 2 mg/kg) was 4.49 ± 0.43 and the “Latency response 120 min” value ([5]; 10 mg/kg + Naloxone 2 mg/kg) was 3.80 ± 0.49. For the same compound, the “Latency response 90 min” value ([5]; 10 mg/kg + Naloxone 2 mg/kg) was 5.30 ± 0.48, the “Latency response 30 min” value ([5]; 20 mg/kg + Naloxone 2 mg/kg) was 3.41 ± 0.48 and the “Latency response 60 min” value ([5]; 20 mg/kg + Naloxone 2 mg/kg) was 4.67 ± 0.60. The “Latency response 120 min” value ([5]; 20 mg/kg + Naloxone 2 mg/kg) was 4.03 ± 0.57 and the “Latency response 90 min” value ([5]; 20 mg/kg + Naloxone 2 mg/kg) was 4.80 ± 0.61.
